Measurements taken from ChEMBL document CHEMBL3763105, “Semisynthesis of new aphidicolin derivatives with high activity against Trypanosoma cruzi” (Bioorg Med Chem Lett, 2016).

How the values were obtained:
[1] = system: Trypanosoma cruzi; assay: Antitrypanosomal activity against Trypanosoma cruzi Tulahuen amastigotes infected in mouse C3H cells after 72 hrs by microplate reader analysis; assay type: functional, organism-based
[2] = Selectivity index, ratio of IC50 for mouse C3H cells to IC50 for Trypanosoma cruzi Tulahuen amastigotes infected in mouse C3H cells; assay type: toxicity, cell-based; settings: read-out: Ratio IC50
[3] = Cytotoxicity against mouse C3H cells after 72 hrs by MTS assay; assay type: cell-based

| SMILES | IC50 [1] | selectivity ratio [2] | IC50 [3] |
| --- | --- | --- | --- |
| C[C@]12COS(=O)O[C@H]1CC[C@]1(C)[C@@H]2CC[C@@H]2C[C@H]3C[C@]21CC[C@@]3(O)CO (some centres not stated) | 0.78 µM | > 100 | > 100 µM |
| CC(C)(C)[Si](C)(C)OC[C@]1(O)CC[C@@]23C[C@@H]1C[C@H]2CC[C@@H]1[C@@](C)(CO[Si](C)(C)C(C)(C)C)C(=O)CC[C@]13C | > 100 µM | – | – |
| CC(C)(C)[Si](C)(C)OC[C@]1(O)CC[C@@]23C[C@@H]1C[C@H]2CC[C@@H]1[C@@](C)(CO[Si](C)(C)C(C)(C)C)[C@@H](O)CC[C@]13C | > 100 µM | – | – |
| C[C@]1(CO)/C(=N\O)CC[C@]2(C)[C@@H]1CC[C@@H]1C[C@H]3C[C@]12CC[C@@]3(O)CO | 1.7 µM | 37.9 | 64.5 µM |
| O=C(Cn1ccnc1[N+](=O)[O-])NCc1ccccc1 [BENZNIDAZOLE] | 3 µM | > 100 | > 100 µM |
| COc1cccc2c1C(=O)c1c(O)c3c(c(O)c1C2=O)C[C@@](O)(C(=O)CO)C[C@@H]3O[C@H]1C[C@H](N)[C@H](O)[C@H](C)O1 [DOXORUBICIN] | – | – | 0.04 µM |
